Data from publication PMC6172411, “Development of a Quantitative Assay for the Characterization of Human Collectin-11 (CL-11, CL-K1)” (Frontiers in Immunology, 2018).

Legend:
[1] = molecular target: T1, rCL-11 (recombinant collectin-11, CL-11, CL-K1) (Homo sapiens, UniProt Q9BWP8); experiment: solid-phase competition ELISA, inhibition of rCL-11 binding to coated mannan; conditions: Ca2+ (TBS-Tw-Ca, 2.5 mM CaCl2), rCL-11 1 ug/ml, mannan-coated plate, room temperature
T1 construct: gene COLEC11; no tag stated; homomeric disulfide-linked oligomers of trimers, monomer ~34 kDa reduced

[2] = molecular target: T1, rCL-11 (recombinant collectin-11, CL-11, CL-K1); experiment: co-precipitation with D-mannose-agarose (western blot) and solid-phase binding to coated D-mannose-BSA; conditions: Ca2+ required (no binding in EDTA or Mg-EGTA); D-mannose presented as immobilised agarose or BSA conjugate; room temperature

T1 sequence (Q9BWP8 26-271): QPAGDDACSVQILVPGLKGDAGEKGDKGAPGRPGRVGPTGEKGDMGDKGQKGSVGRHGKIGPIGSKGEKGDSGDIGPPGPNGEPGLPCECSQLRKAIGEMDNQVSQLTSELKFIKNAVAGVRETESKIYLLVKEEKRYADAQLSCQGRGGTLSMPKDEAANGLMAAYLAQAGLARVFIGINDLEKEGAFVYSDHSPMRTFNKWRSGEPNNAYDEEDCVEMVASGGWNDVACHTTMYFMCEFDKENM

Structure (SMILES) | IC50 [1] | co-precipitation with D-mannose-agarose (western blot) and solid-phase binding t [2]
C[C@@H]1OC(O)[C@@H](O)[C@H](O)[C@@H]1O (stereo partly drawn) [L-fucose] | 36.5 mM | –
OC[C@H]1OC(O)[C@@H](O)[C@@H](O)[C@@H]1O (stereo partly drawn) [D-mannose] | – | bound to D-mannose and mannan in the presence of calcium
